Tests used:
MjCobT [1] = molecular target: T1, MjCobT (Methanocaldococcus jannaschii, UniProt Q58993); test: X-ray crystal structure of complex, […] Å; format: binding
T1 construct: gene MJ1598; expressed in E. coli BL21-CodonPlus from pTEV5; N-terminal His6 tag cut with rTEV; Met 1 to Tyr 348 modelled; dimer

MjCobT [2] = molecular target: T1, MjCobT; test: turnover in crystal, product seen by X-ray; format: biochemical; conditions: free base not seen in the structure
MjCobT [3] = molecular target: T1, MjCobT; test: X-ray crystal structure of complex, […] Å; format: binding; conditions: formed in the crystal from NaMN and adenine; active site with nicotinic acid
[4] = molecular target: the molecule itself; test: crystal structure; three crystal forms of MjCobT grown at room temperature: apo (P41212, 1 subunit per asymmetric unit), with NaMN and α-RP + nicotinic acid (P21, 2 subunits), with α-AMP + nicotinic acid (P21, 2 subunits); molecular replacement with 3L0Z

O=C([O-])c1ccc[n+]([C@@H]2O[C@H](COP(=O)(O)O)[C@@H](O)[C@H]2O)c1 [NaMN]
X-ray crystal structure of complex, 2.3 Å (MjCobT [1]; crystals grown with DMB, soaked overnight in 1 mM NaMN, NaMN in active site of chain A): NaMN lies at the base of the active site for chain A

Nc1ncnc2[nH]cnc12 [adenine]
turnover in crystal, product seen by X-ray (MjCobT [2]; 1 mM adenine and 1 mM NaMN soak, pH 8.5): the reaction product was prepared in situ by soaking the crystals in NaMN and adenine

Nc1ncnc2ncn([C@H]3O[C@H](COP(=O)(O)O)[C@@H](O)[C@H]3O)c12 [α-AMP]
X-ray crystal structure of complex, 1.4 Å (MjCobT [3]): the crystals were highly ordered and the position of α-AMP is unequivocal

Cc1cc2nc[nH]c2cc1C [DMB]
turnover in crystal, product seen by X-ray (MjCobT [2]; 1 mM DMB in crystallization, NaMN soak overnight): During that time the enzyme catalyzed a transferase reaction

Cc1cc2ncn([C@H]3O[C@H](COP(=O)(O)O)[C@@H](O)[C@H]3O)c2cc1C [α-RP]
X-ray crystal structure of complex, 2.3 Å (MjCobT [1]; formed in the crystal from NaMN and DMB, active site of chain B with nicotinic acid, occupancy below 1.0): One subunit contains NaMN, whereas the second includes α-RP and nicotinic acid

B1: Methanocaldococcus jannaschii nicotinate mononucleotide:base phosphoribosyltransferase (MjCobT) (enzyme)
chain: MSIIAINENGFLDKIKGRNPLFTCVISSIETTLSIPISGVHRDVIKYTPSADVELVFYGKSLTLKTPPIDATGSPTPATITRACVELKNIKNLHIDAGAFVKPKIPFIEIDEKPTGRIEEGKAMNNSKELYMKGYLLGKNLDAELLIVGESVPGGTTTALGVLLGLGYDAEGKVSSGSINNPHELKIKVVREGLKKAGINEKSSVFDVLNAVGDKMMPVVAGLAISFAERNKPVILAGGTQMSAVLAVIKEINKKVLDKNLIAIGTTEFVLNDKKGDLKGIVEQIGNVPVLASKFYFEKAKIEGLKNYCKGSVKEGVGAGGIAVYSIVNDLEPTKIREFIENKFYEWYKE
notes: CobT (NaMN:base phosphoribosyltransferase) of Methanocaldococcus jannaschii; the modelled chain runs from Met 1 to Tyr 348; also called PRTase from Methanocaldococcus jannaschii; source: E. coli BL21-CodonPlus, purified (80 °C heat step, Ni-NTA, rTEV cleavage, second Ni-NTA); not shown: His6, N-terminal, cleaved
stoichiometry N [4]: 2
